Where a SMILES comes first, the peptide text is derived from it. Bridges are numbered along the chain shown (N, C = ends). [ ]: non-standard residue; d: D form.
What was measured:
[1] = system: HT-29 (colon cancer cells); assay: Cell proliferation assay (MTT, 72 h); assay type: cell-based; details: 72-h period
Experimental: (§1) All cells were maintained using the media conditions described above, and passages 2–10 were used for all cell lines. Cell numbers of 2.5×10^3 cells/well (100 μL) were used for both HUVECs and HMVECs, and 1.5×10^3 cells/well (100 μL) were used for other cell lines in this assay. All cells were allowed to attach for 24 h after plating. Cells were treated with fresh media the next day, before the addition of peptides and then incubated for 72 h. Similar peptide concentrations to those mentioned above (in the cell cytotoxicity section) were used. 0.1% (v/v) Triton X-100 (10 μL) was used as a positive control. After 72 h of incubation, MTT and DMSO were added and analysed using the same method as described above.

[2] = system: PC3 cells (prostate cancer cells); assay: Cell proliferation assay (MTT, 72 h); assay type: cell-based; details: PC-3; 72-h period
Experimental: as §1

[3] = system: matriptase over-expressed PC-3 cell line; design: method as in PMID 24696092; details: cited from earlier work
[4] = Stability assay in human serum; assay type: in vitro ADME; details: initial 300 μM; for remaining at 24 h, 300 μM: male, human, human serum, over a 24-h period, read-out: peptide remained in human serum
Experimental: All peptides were tested on human serum from male AB plasma (Sigma–Aldrich) at an initial concentration of 300 μM. Peptide incubation time points were 0, 2, 4, 8, 16 and 24 h. Samples were prepared according to previously described methods. Briefly, 90 μL of supernatant was taken at each time point and chromatographed on a 0.3 mL/min Phenomenex column using a linear 1%/min gradient of 0–50% solvent B on an analytical reverse-phase HPLC (Agilent). The elution times for all peptides were determined by the serum control at 0 h. The stability of each peptide for each time point was calculated as the height of the serum-treated peptide peak at 215 nm as percentage of the height of the 0-h serum-treated control. Experiments were done in triplicate.

Human red blood cells = assay: Hemolytic assay; assay type: cell-based; details: peptides 0.01–50 μM; melittin positive control from 20 μM
Experimental: Human red blood cells were used to measure the hemolysis of all peptides, with melittin used as a positive control. Peptides concentrations were 50 μM, 25 μM, 10 μM, 5 μM, 1 μM, 0.5 μM, 0.1 μM and 0.01 μM. Melittin was tested at eight concentrations, with two-fold dilution from a concentration of 20 μM. Sample absorbance was measured at 415 nm using a BioTek PowerWave XS instrument, as described previously. Experiments were done in triplicate.

HMVECs = system: HMVECs; design: method as in PMID 15716381; details: at 5 nM; cited from earlier work
HUVECs = system: HUVECs; design: method as in PMID 15716381; details: at 16 nM; cited from earlier work

Momordica cochinchinensis trypsin inhibitor-II [MCoTI-II]
anti-proliferative effect [1]: minor anti-proliferative effects
anti-proliferative effect [2]: minor anti-proliferative effects
effect on invasive cell migration [3]: inhibited invasive cell migration

CC[C@@H](C)[C@H]1NC(=O)[C@H](C(C)C)NC(=O)CNC(=O)[C@@H]2CSSC[C@H](NC(=O)[C@H](CCCNC(=N)N)NC(=O)[C@H]([C@@H](C)CC)NC(=O)[C@H](CCCNC(=N)N)NC(=O)[C@H]([C@@H](C)O)NC1=O)C(=O)N[C@@H]([C@@H](C)O)C(=O)N[C@@H](CCCCN)C(=O)N[C@@H](CO)C(=O)N[C@@H]([C@@H](C)CC)C(=O)N1CCC[C@H]1C(=O)N1CCC[C@H]1C(=O)N[C@@H]([C@@H](C)CC)C(=O)N2 [SFTI-TSP-1, CTKSIPPICGViTRIR]
remaining at 24 h, 300 μM [4]: > 50%

sunflower trypsin inhibitor-1 [SFTI-1]
anti-proliferative effect [1]: minor anti-proliferative effects
anti-proliferative effect [2]: minor anti-proliferative effects

CC[C@@H](C)[C@H]1NC(=O)[C@H](C(C)C)NC(=O)CNC(=O)[C@@H]2CSSC[C@@H]3NC(=O)[C@H](CC(=O)O)NC(=O)[C@H](CO)NC(=O)[C@H](CC(=O)O)NC(=O)[C@H](CCCNC(=N)N)NC(=O)[C@H](CCCNC(=N)N)NC(=O)[C@@H]4CSSC[C@H](NC(=O)[C@H]([C@@H](C)CC)NC(=O)[C@H](CSSC[C@H](NC(=O)[C@H](CCCNC(=N)N)NC(=O)[C@H]([C@@H](C)CC)NC(=O)[C@H](CCCNC(=N)N)NC(=O)[C@H]([C@@H](C)O)NC1=O)C(=O)N1CCC[C@H]1C(=O)N[C@@H](CCCCN)C(=O)N[C@@H]([C@@H](C)CC)C(=O)N[C@@H](CC(C)C)C(=O)N[C@@H](CCCCN)C(=O)N[C@@H](CCCCN)C(=O)N4)NC(=O)[C@H](C)NC(=O)CNC(=O)[C@@H]1CCCN1C3=O)C(=O)N[C@@H](CCCNC(=N)N)C(=O)NCC(=O)N[C@@H](CC(N)=O)C(=O)NCC(=O)N[C@@H](Cc1ccc(O)cc1)C(=O)N2 [MCo-TSP-1] (cyclo(ACICRGNGYCGV[dI]TRIRCPKILKKCRRDSDCPG); disulfide 2-18, 4-25, 10-31)
remaining at 24 h, 300 μM [4]: > 50%

CC[C@H](C)[C@H](NC(=O)CN)C(=O)NCC(=O)N[C@@H](C)C(=O)N[C@H](C(=O)N[C@@H](CC(C)C)C(=O)N[C@@H](CCCCN)C(=O)N[C@H](C(=O)N[C@@H](CC(C)C)C(=O)N[C@H](C(=O)N[C@H](C(=O)NCC(=O)N[C@@H](CC(C)C)C(=O)N1CCC[C@H]1C(=O)N[C@@H](C)C(=O)N[C@@H](CC(C)C)C(=O)N[C@H](C(=O)N[C@@H](CO)C(=O)N[C@@H](Cc1c[nH]c2ccccc12)C(=O)N[C@H](C(=O)N[C@@H](CCCCN)C(=O)N[C@@H](CCCNC(=N)N)C(=O)N[C@@H](CCCCN)C(=O)N[C@@H](CCCNC(=N)N)C(=O)N[C@@H](CCC(N)=O)C(=O)N[C@@H](CCC(N)=O)C(N)=O)[C@@H](C)CC)[C@@H](C)CC)[C@@H](C)O)[C@@H](C)O)C(C)C)C(C)C [melittin]
haemolysis of human red blood cells (Human red blood cells): highly haemolytic

CC[C@@H](C)[C@@H](NC(=O)[C@@H](NC(=O)CN)C(C)C)C(=O)N[C@H](C(=O)N[C@@H](CCCNC(=N)N)C(=O)N[C@H](C(=O)N[C@@H](CCCNC(=N)N)C(=O)O)[C@@H](C)CC)[C@@H](C)O [linear TSP-1 heptapeptide, GViTRIR] (H-GV[dI]TRIR-OH)
time within which degraded in human serum [4]: ≤ 24 h

thrombospondin-1 type-1 repeats [TSR]
inhibition on HMVECs (migration) (HMVECs): 35%
inhibition on HUVECs (migration) (HUVECs): 60%

Reference: article PMC4660582, “Cyclic thrombospondin-1 mimetics: grafting of a thrombospondin sequence into circular disulfide-rich frameworks to inhibit endothelial cell migration” (Bioscience Reports, 2015)
